Assay results published in PMC11960843, “Exploration of the tunability of BRD4 degradation by DCAF16 trans-labelling covalent glues” (European journal of medicinal chemistry, 2024).
Read-outs that look alike come from different tables or passages of the source.

Tests used:
[1] = molecular target: T1, BRD4 (Homo sapiens, UniProt O60885); assay: Western blot of BRD4 degradation, DCAF16 KO K562 cells; assay type: cell-based; design: an 11 amino acid peptide knock-in tag to a protein-of-interest using CRISPR insertion; endogenous in cells; settings: DCAF16 KO K562, 1 μM, 16 h
Protocol: (§1) Western blotting was used to determine the degradation potencies of the covalent BRD4 degraders.
(§2) Cells were washed with PBS and lysed in RIPA lysis buffer (Thermo Fisher Scientific) with Halt Protease Inhibitor Cocktail (Thermo Fisher Scientific) and Benzonase (Sigma-Aldrich) for 20 min on ice. The insoluble fraction was removed by centrifugation, the protein concentration was quantified using a BCA protein assay kit (Thermo Fisher Scientific), and an equal amount of lysate was run on SDS–PAGE 4–12% Bis–Tris Protein Gels (Thermo Fisher Scientific) and then transferred to nitrocellulose membrane with a XCell II Blot Module Wet Tank Transfer System (Thermo Fisher Scientific). Membranes were blocked in Intercept (PBS) Blocking Buffer (LI-COR Biosciences) and incubated with primary antibodies overnight at 4 °C. The membranes were then washed in Tris-buffered saline with Tween-20 (TBS-T), incubated for 1 h with secondary IRDye-conjugated antibodies (LI-COR Biosciences) and washed three times in TBS-T for 5 min before near-infrared western blot detection on an Odyssey Imaging System (LI-COR Biosciences).

[2] = molecular target: T2, BRD4BD2 (Homo sapiens, UniProt O60885); assay: BRD4 AlphaScreen competition assay (JQ1-biotin displacement), BRD4BD2; assay type: binding
[3] = molecular target: T1, BRD4; assay: Washout experiment, Western blot of BRD4 degradation in K562 cells; assay type: cell-based; design: an 11 amino acid peptide knock-in tag to a protein-of-interest using CRISPR insertion; endogenous in cells; settings: K562, 1 μM; for BRD4 degradation after washout compared to no washout (in words): 4 h treatment, 20 h compound-free vs 24 h no washout
Protocol: This experiment involves cell treatment and incubation with a ‘covalent’ compound, followed by a wash-step where the cells are washed and resuspended in compound-free cell media.
Cells were washed with PBS and lysed in RIPA lysis buffer (Thermo Fisher Scientific) with Halt Protease Inhibitor Cocktail (Thermo Fisher Scientific) and Benzonase (Sigma-Aldrich) for 20 min on ice. […] Membranes were blocked in Intercept (PBS) Blocking Buffer (LI-COR Biosciences) and incubated with primary antibodies overnight at 4 °C. The membranes were then washed in Tris-buffered saline with Tween-20 (TBS-T), incubated for 1 h with secondary IRDye-conjugated antibodies (LI-COR Biosciences) and washed three times in TBS-T for 5 min before near-infrared western blot detection on an Odyssey Imaging System (LI-COR Biosciences).

[4] = molecular target: T3, BRD4BD2-DCAF16 ternary complex (Homo sapiens, UniProt O60885+Q9NXF7); assay: DDB1-DCAF16-BRD4BD2 TR-FRET ternary complex formation assay; assay type: biochemical; settings: for TR-FRETmax (520 nm/490 nm ratio): 6 h degrader incubation; for incubation time of saturation / maximum TR-FRET signal: measured at 1, 2, 4, 6 and 24 h; for BRD4BD2-DCAF16 ternary complex formation / DCAF16 recruitment (in words): time-dependent TR-FRET
T3 construct: E3 ligase to bromodomain 2 (BRD4BD2); His6 (N); StrepII (N); Avi (N); made in house; host or cells: BRD4BD2: E. coli (pET100/D-TOPO)
T3 sequence (Q9NXF7 whole entry, other chains not shown): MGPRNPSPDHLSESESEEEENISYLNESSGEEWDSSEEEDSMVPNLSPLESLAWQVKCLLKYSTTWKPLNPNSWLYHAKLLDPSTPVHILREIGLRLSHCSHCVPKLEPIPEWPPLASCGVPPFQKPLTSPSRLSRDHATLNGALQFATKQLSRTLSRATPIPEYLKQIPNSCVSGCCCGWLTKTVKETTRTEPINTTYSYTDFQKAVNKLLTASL
Text: To determine the relationship between covalent warheads and DCAF16 recruitment to BRD4BD2, we used a time-resolved fluorescence energy transfer (TR-FRET) assay to measure induced BRD4BD2-DCAF16 ternary complex formation (Fig. 3A).
Furthermore, we wanted to determine the kinetics of the BRD4BD2-DCAF16 interaction given its covalent nature. […] Additionally, to understand the relationship between ternary complex formation kinetics and warhead reactivity we measured the depletion of the covalent analogs in the presence of glutathione using MS (Table S2). […] Titrations of compounds to induce the DCAF16-BRD4BD complex were carried out by mixing 100 nM biotinylated BRD4BD2, 500 nM BODIPY-FL labeled DDB1ΔB-DCAF16 variants, and 2 nM terbium-coupled streptavidin (Invitrogen) in an assay buffer containing 50 mM HEPES pH 8.0, 200 mM NaCl, 0.1% Pluronic F-68 solution (Sigma), 0.5% bovine serum albumin (BSA) (w/v) and 1 mM TCEP. […] The TR-FRET signal of each data point was extracted by calculating the 520/490 nm ratio.

[5] = test system: glutathione; assay: GSH stability (glutathione reactivity) assay by LC-MS/MS; assay type: physicochemical; settings: PBS containing 5 mM reduced glutathione; PBS + 5 mM GSH; extrapolated from 240 min assay
Text: Furthermore, we wanted to determine the kinetics of the BRD4BD2-DCAF16 interaction given its covalent nature. […] Additionally, to understand the relationship between ternary complex formation kinetics and warhead reactivity we measured the depletion of the covalent analogs in the presence of glutathione using MS (Table S2). […].

[6] = molecular target: T1, BRD4; assay: BRD4-HiBiT assay, DCAF16 KO JURKAT cells; assay type: cell-based; design: an 11 amino acid peptide knock-in tag to a protein-of-interest using CRISPR insertion; endogenous in cells; host or cells: JURKAT, HiBiT-edited (wild type or DCAF16 knockout); settings: 6 h
Protocol: (§3) Thereafter, we sought to characterize the BRD4 cellular degradation potencies in a dose-dependent manner at a shorter time point to minimize secondary effects. This was performed using the bioluminescent HiBiT-BRD4 assay, which consists of an 11 amino acid peptide knock-in tag to a protein-of-interest using CRISPR insertion. A complementary polypeptide (LgBiT) detects and interacts with all HiBiT tagged proteins, thereby reconstituting a luminescent NanoBiT enzyme, that can be quantified by its bioluminescence. WT and DCAF16 KO JURKAT cell lines expressing the BRD4-HiBiT system were generated to quantify dose-dependent BRD4 degradation after 6 h incubation (Fig. 4C).
(§4) After 6 h, the plates were subjected to Nano-Glo HiBiT Lytic detection system (Promega, #N3040) as described in manufacturer's manual. The assays were performed in biological triplicate. DC50 values were determined using a non-linear regression curve fit in GraphPad PRISM 9.5.1.

[7] = molecular target: T2, BRD4BD2; assay: BRD4BD2-eGFP and mCherry flow reporter degradation assay, wild type K562 cells; settings: for Dmax: K562, read-out: maximal degradation (Dmax/16h) of BRD4BD2, K562 cells, 16 h incubation; for DC50: read-out: DC50 of BRD4BD2 degradation; for DC50 / DCAF16 dependent BRD4BD2 degradation (in words): K562 cells, 16 h incubation
Text: This assay involves the co-expression of mCherry with BRD4BD1/2 fused to an enhanced green fluorescent protein (eGFP) tag, and the subsequent fluorescence measurement of BRD4BD1/2-eGFP normalized to mCherry as a readout for BRD4BD1/2 degradation. It allows for a quantitative, rapid, and facile screening of several MGDs, in a dose-and time-dependent manner. […] Thus, the BRD4BD2 stability system was used to test all subsequent GNE011 analogs in wild type and DCAF16−/− cells.
One day after infection, reporter cells were selected with puromycin at a concentration of 2 μg/mL.
(§5) K562 cells stably expressing degradation reporter were dosed with DMSO or degraders at various times and concentrations using D300e Digital Dispenser (HP). The fluorescent signal was quantified by flow cytometry (LSRFortessa flow cytometer, BD Biosciences) and analyzed using FlowJo (flow cytometry analysis software, BD Biosciences). The geometric mean of the eGFP and mCherry fluorescent signal for round and mCherry-positive cells was calculated. GFP expression was normalized to mCherry signal and drug treatments were compared to DMSO controls.

[8] = molecular target: T1, BRD4; assay: Western blot of BRD4 degradation, wild-type K562 cells; assay type: cell-based; design: an 11 amino acid peptide knock-in tag to a protein-of-interest using CRISPR insertion; endogenous in cells; settings: wild-type K562, 1 μM, 16 h
Protocol: as §1, §2

[9] = molecular target: T1, BRD4; assay: BRD4-HiBiT assay, WT JURKAT cells; assay type: cell-based; design: an 11 amino acid peptide knock-in tag to a protein-of-interest using CRISPR insertion; endogenous in cells; host or cells: JURKAT, HiBiT-edited (wild type or DCAF16 knockout); settings: 6 h
Protocol: as §3, §4

[10] = molecular target: BRD4BD1 (Homo sapiens, UniProt O60885); assay: BRD4 AlphaScreen competition assay (JQ1-biotin displacement), BRD4BD1; assay type: binding
[11] = molecular target: T2, BRD4BD2; assay: BRD4BD2-eGFP and mCherry flow reporter degradation assay, DCAF16 KO K562 cells
Text: In order to investigate the degradation of BRD4 by GNE011 and related analogs, we used a fluorescent stability reporter assay reported previously (Fig. 2A) [17]. This assay involves the co-expression of mCherry with BRD4BD1/2 fused to an enhanced green fluorescent protein (eGFP) tag, and the subsequent fluorescence measurement of BRD4BD1/2-eGFP normalized to mCherry as a readout for BRD4BD1/2 degradation. It allows for a quantitative, rapid, and facile screening of several MGDs, in a dose-and time-dependent manner. […] Thus, the BRD4BD2 stability system was used to test all subsequent GNE011 analogs in wild type and DCAF16−/− cells.
Lentivirus containing sgRNA was transduced to 2 × 10^6 of K562-Cas9 cells at 10% volume ratio by spin infection. FACS sorting was performed to enrich BFP+ cells one week after infection. […] Clonal sgDCAF16-expressing K562-Cas9 cells were isolated after one month of expansion, and the genomic sequences were validated via deep sequencing of PCR amplicons targeting sgDCAF16 cutting sites (MGH CCIB DNA Core Service).
as §5

Row | Compound | BRD4 degradation by Western blot in DCAF16 KO (in words) [1] | IC50 ([2]; read-out: IC50 BRD4BD2) [nM] | BRD4 degradation after washout compared to no washout (in words) [3] | TR-FRETmax (520 nm/490 nm ratio) [4] | incubation time of saturation / maximum TR-FRET signal [4] [h] | half-life [5] [h] | BRD4 degradation in DCAF16 KO (in words) [6] | Dmax [7] [%] | DC50 [7] [nM] | BRD4 degradation by Western blot (in words) [8] | BRD4 degradation [9] [%] | BRD4 degradation (in words) [9] | IC50 ([10]; read-out: IC50 BRD4BD1) [nM] | BRD4BD2 degradation activity in DCAF16 knockout cells (in words) [11] | BRD4BD2-DCAF16 ternary complex formation / DCAF16 recruitment (in words) [4] | BRD4 degradation ([9]; at 10 μM) | IC50 [2] [nM] | IC50 [10] [nM] | BRD4 degradation without washout (in words) ([3]; 24 h no washout) | DCAF16 dependent BRD4BD2 degradation (in words) [7]
1 | Cc1sc2c(c1C)C(c1ccc(/C=C/C=O)cc1)=N[C@@H](CC(=O)OC(C)(C)C)c1nnc(C)n1-2 [TMX1, tert-butyl (S,E)-2-(2,3,9-trimethyl-4-(4-(3-oxoprop-1-en-1-yl)phenyl)-6H-thieno[3,2-f][1,2,4]triazolo[4,3-a][1,4]diazepin-6-yl)acetate] | completely rescued by DCAF16 KO | 33.9 | no or minimal difference | 1.34 | 1 | 6.92 | completely rescued by DCAF16 KO | 75 | 64 | nearly complete BRD4 degradation | < 60 | noticeable BRD4 degradation | 8.78 |  |  |  |  |  |  | 
2 | Cc1sc2c(c1C)C(c1ccc(NC(=O)CCl)cc1)=N[C@@H](CC(=O)OC(C)(C)C)c1nnc(C)n1-2 [MMH249, tert-butyl (S)-2-(4-(4-(2-chloroacetamido)phenyl)-2,3,9-trimethyl-6H-thieno[3,2-f][1,2,4]triazolo[4,3-a][1,4]diazepin-6-yl)acetate] |  | 2.59 | no or minimal difference | 0.77 | 24 | 8.85 | completely rescued by DCAF16 KO | 56 | 8 | moderate degradation | < 60 | noticeable BRD4 degradation | 3.98 | almost entirely ablated |  |  |  |  |  | 
3 | Cc1sc2c(c1C)C(c1ccc(C#CC=O)cc1)=N[C@@H](CC(=O)OC(C)(C)C)c1nnc(C)n1-2 [TMX4128, tert-butyl (S)-2-(2,3,9-trimethyl-4-(4-(3-oxoprop-1-yn-1-yl)phenyl)-6H-thieno[3,2-f][1,2,4]triazolo[4,3-a][1,4]diazepin-6-yl)acetate] | completely rescued by DCAF16 KO | 21.7 | no or minimal difference | 0.65 | 1 | 8.83 | completely rescued by DCAF16 KO | 69 | 703 | nearly complete BRD4 degradation | < 60 | noticeable BRD4 degradation | 2.2 |  | disintegration of the ternary complex overtime | ~ 73% |  |  |  | 
4 | Cc1sc2c(c1C)C(c1ccc(I)cc1)=N[C@@H](CC(=O)OC(C)(C)C)c1nnc(C)n1-2 [MMH263, tert-butyl (S)-2-(4-(4-iodophenyl)-2,3,9-trimethyl-6H-thieno[3,2-f][1,2,4]triazolo[4,3-a][1,4]diazepin-6-yl)acetate] |  |  |  |  |  |  |  |  |  |  |  |  |  |  |  |  | 4.96 | 11.7 |  | 
5 | COC(=O)/C=C/c1ccc(C2=N[C@@H](CC(=O)OC(C)(C)C)c3nnc(C)n3-c3sc(C)c(C)c32)cc1 [MMH269, methyl (S,E)-3-(4-(6-(2-(tert-butoxy)-2-oxoethyl)-2,3,9-trimethyl-6H-thieno[3,2-f][1,2,4]triazolo[4,3-a][1,4]diazepin-4-yl)phenyl)acrylate] |  | 5.07 |  | 0.18 |  | > 12.5 |  |  |  |  |  |  | 10.5 |  | no significant DCAF16 recruitment |  |  |  | showed BRD4 degradation in 24 h no washout experiments | almost no DCAF16 dependent BRD4BD2 degradation
6 | Cc1sc2c(c1C)C(c1ccc(C#CCO)cc1)=N[C@@H](CC(=O)OC(C)(C)C)c1nnc(C)n1-2 [TMX458, tert-butyl (S)-2-(4-(4-(3-hydroxyprop-1-yn-1-yl)phenyl)-2,3,9-trimethyl-6H-thieno[3,2-f][1,2,4]triazolo[4,3-a][1,4]diazepin-6-yl)acetate] |  | 3.92 |  | 0.16 |  |  |  | 10 | > 10000 |  |  |  | 10.1 |  | no significant DCAF16 recruitment |  |  |  |  | completely inactive
7 | Cc1sc2c(c1C)C(c1ccc(N)cc1)=N[C@@H](CC(=O)OC(C)(C)C)c1nnc(C)n1-2 [MMH248, tert-butyl (S)-2-(4-(4-aminophenyl)-2,3,9-trimethyl-6H-thieno[3,2-f][1,2,4]triazolo[4,3-a][1,4]diazepin-6-yl)acetate] |  |  |  |  |  |  |  |  |  |  |  |  |  |  |  |  | 4.29 | 12.5 |  | 
